The source of these data is patent US20230099344A1, “COMPOUNDS AND METHODS FOR THE TARGETED DEGRADATION OF IRAK-4” (Arvinas Operations, Inc., priority 2021, published 2023).

Bounds are passed on as bounds.

Holding throughout (format): cell-based
Test [1] concerns IL6. As to the kind of experiment: LPS stimulated IL6 inhibition assay in PBMC. Particulars: Homo sapiens, PBMC, 24 h, human PBMCs, LPS stimulation, compound overnight, IL6 by MSD after 24 hrs; for Dmax: read-out: LPS Stim IL6 inhibition Dmax; for IC50: read-out: LPS stim IL6 inhibition IC50. As to the method: (§1) IL-1β, LPS, or R848 Stimulated IL6 Inhibition and IL-1β Stimulated IL8 Inhibition Assay
(§2) Human PBMC cells were seeded at 2.0×10^6 cells/mL, treated with compound overnight, and dosed with the EC50 concentration of each stimulant (either IL-1B. LPS, or R848) was determined for each donor. After 24 hrs, media was collected and analyzed by MSD for IL6 and/or IL8 levels.

Test [2] relates to IL6. As to the kind of experiment: R848 stimulated IL6 inhibition assay in PBMC. Particulars: PBMC, human PBMCs, R848 stimulation, compound overnight, IL6 by MSD after 24 hrs; for Dmax: Homo sapiens, 24 h, read-out: R848 stim IL6 inhibition Dmax; for IC50: read-out: R848 stim IL6 inhibition IC50. As for the experimental part: as §1, §2
The target of a further test is T1, IRAK-4 (Homo sapiens, UniProt Q9NWZ3).
T1 sequence (Q9NWZ3 1-460): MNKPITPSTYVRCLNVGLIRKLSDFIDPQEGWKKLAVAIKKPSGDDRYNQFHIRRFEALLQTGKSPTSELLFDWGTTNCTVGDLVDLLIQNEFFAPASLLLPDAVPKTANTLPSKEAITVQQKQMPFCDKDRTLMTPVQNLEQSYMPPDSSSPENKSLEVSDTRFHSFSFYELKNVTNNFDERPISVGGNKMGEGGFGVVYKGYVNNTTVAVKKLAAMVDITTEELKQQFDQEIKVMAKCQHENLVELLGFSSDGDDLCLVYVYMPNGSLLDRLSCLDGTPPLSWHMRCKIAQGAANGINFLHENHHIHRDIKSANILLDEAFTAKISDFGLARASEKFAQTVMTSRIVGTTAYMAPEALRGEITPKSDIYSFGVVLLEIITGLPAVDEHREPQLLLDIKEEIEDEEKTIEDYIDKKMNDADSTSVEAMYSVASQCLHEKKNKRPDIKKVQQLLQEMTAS
As to the kind of experiment: IRAK-4 ELISA, PBMC degradation. On the set-up: endogenous in cells; host or cells: PBMC. Particulars: treated overnight. Put shortly: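 Readout: IRAK-4 protein level in cell lysate, sandwich ELISA. Cells: OCI-Ly10 at 1×10^6/ml or PBMC at 2×10^6/ml, compound added same day, overnight incubation.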
On the technique in general: An ELISA detects its analyte on a solid surface through an enzyme-linked reagent.

As usually defined, the IC50 is the concentration at which inhibition is half-maximal. Usually DC50 stands for the concentration giving 50% degradation. Take `CC(C)Oc1cc2c(cc1NC(=O)c1cnn3cccnc13)CN(C1CCN(C(C)(C)C3CCN(c4ccc5c(c4)CN(C4CCC(=O)NC4=O)C5=O)CC3)CC1)C2=O` (centres unmarked) [Example 111]: in the test on IL6 [1], the Dmax is not below 90% and the IC50 fell in the range of 10 to 50 nM. In the test with IL6 [2], the Dmax is not below 90% and the IC50 was in the range of 10 to 50 nM. In addition, on IRAK-4, the DC50 is less than 1 nM, the Dmax was in the range of 80 to 90% and the “PBMC DC90” value was “A (A represents a DC90 value <10.0 nM)”.

As to `CC(C)Oc1nc2c(cc1NC(=O)c1cnn3cccnc13)CN(C1CCN(CC3CCN(c4ccc5c(c4)C(=O)N(C4CCC(=O)NC4=O)C5=O)CC3)CC1)C2=O` (centres unmarked) [Example 46], in the test with IL6 [1], the Dmax fell in the range of 70 to 80% and the IC50 is 10 to 50 nM. In the test on IL6 [2], the Dmax is not below 90% and the half-inhibitory concentration (IC50) was 10 to 50 nM. At IRAK-4, the DC50 is 1 to 5 nM, the Dmax was not below 90% and the “PBMC DC90” value is listed as “A (A represents a DC90 value <10.0 nM)”.

Regarding `O=C1CCC(N2C(=O)c3ccc(C4CCN(C[C@H]5CC[C@H](n6cc7cc(NC(=O)c8cnn9cccnc89)c(OCC8CC8)cc7n6)CC5)CC4)cc3C2=O)C(=O)N1` (some centres unmarked) [Example 429, N-[6-(cyclopropylmethoxy)-2-[(1r,4r)-4-({4-[2-(2,6-dioxopiperidin-3-yl)-1,3-dioxo-2,3-dihydro-1H-isoindol-5-yl]piperidin-1-yl}methyl)cyclohexyl]-2H-indazol-5-yl]pyrazolo[1,5-a]pyrimidine-3-carboxamide], in the test with IL6 [1], the Dmax fell in the range of 70 to 80% and the IC50 is less than 10 nM. Besides, in the test with IL6 [2], the Dmax is not below 90% and the IC50 is 10 to 50 nM. Further, at IRAK-4, the DC50 was less than 1 nM, the Dmax was not below 90% and the “PBMC DC90” value is “A (A represents a DC90 value <10.0 nM)”.

On to `O=C1CCC(N2Cc3cc(N4CCC(CN5CCC(N6Cc7cc(NC(=O)c8cnn9cccnc89)c(N8CCN(CC(F)F)CC8)cc7C6=O)CC5)CC4)ccc3C2=O)C(=O)N1` (centres unmarked) [Example 50], for which, in the test with IL6 [1], the Dmax is less than 70% and the IC50 was 10 to 50 nM. In the test on IL6 [2], the Dmax is not below 90% and the IC50 fell in the range of 10 to 50 nM. At IRAK-4, the DC50 was less than 1 nM, the Dmax was not below 90% and the “PBMC DC90” value is reported as “A (A represents a DC90 value <10.0 nM)”.

In the case of `O=C1CCC(N2Cc3cc(N4CCC(CN5CCC(n6cc7cc(NC(=O)c8cnn9cccnc89)c(OCC(F)F)cc7n6)CC5)CC4)ccc3C2=O)C(=O)N1` (centres unmarked) [Example 149], in the test on IL6 [1], the Dmax was 70 to 80% and the 50% inhibitory concentration (IC50) is 10 to 50 nM. Besides, in the test on IL6 [2], the Dmax is not below 90% and the IC50 was less than 10 nM. On IRAK-4, the DC50 was less than 1 nM, the Dmax was in the range of 80 to 90% and the “PBMC DC90” value is listed as “A (A represents a DC90 value <10.0 nM)”.

For `CC(C)Oc1cc2c(cc1NC(=O)c1cnn3cccnc13)CN(C1CCN(CC3(F)CN(c4ccc5c(c4F)CN(C4CCC(=O)NC4=O)C5=O)C3)CC1)C2=O` (centres unmarked) [Example 107], in the test with IL6 [1], the Dmax is not below 90% and the IC50 fell in the range of 10 to 50 nM. In the test with IL6 [2], the Dmax is not below 90% and the IC50 lay in the range of 50 to 100 nM. Besides, at IRAK-4, the DC50 lay within 1 to 5 nM, the Dmax was 70 to 80% and the “PBMC DC90” value is on record as “A (A represents a DC90 value <10.0 nM)”.

Turning to `CC(C)Oc1cc2c(cc1NC(=O)c1cnn3cccnc13)CN(C1CCN(C(C)(C)C3CN(c4ccc(C(=O)NC5CCC(=O)NC5=O)c(F)c4)C3)CC1)C2=O` (centres unmarked) [Example 312], in the test on IL6 [1], the Dmax was not below 90% and the IC50 is 10 to 50 nM. For the same molecule, in the test with IL6 [2], the Dmax was not below 90% and the IC50 is less than 10 nM. Further, on IRAK-4, the DC50 is 1 to 5 nM, the Dmax is not below 90% and the “PBMC DC90” value is listed as “A (A represents a DC90 value <10.0 nM)”.

For `O=C1CC[C@H](N2C(=O)c3ccc(N4CC(F)(CN5CCC(n6cc7cc(NC(=O)c8cnn9cccnc89)c(OCC8CC8)cc7n6)CC5)C4)cc3C2=O)C(=O)N1` [Example 254], in the test on IL6 [1], the Dmax is less than 70% and the IC50 fell in the range of 50 to 100 nM. For the same molecule, in the test with IL6 [2], the Dmax is not below 90% and the IC50 lay in the range of 10 to 50 nM. Also, at IRAK-4, the DC50 lay in the range of 1 to 5 nM, the Dmax was not below 90% and the “PBMC DC90” value was “A (A represents a DC90 value <10.0 nM)”.

Take `CC(C)Oc1cc2c(cc1NC(=O)c1cnn3cccnc13)CN([C@H]1CC[C@H](CN3CCN(c4ccc5c(c4)C(=O)N(C4CCC(=O)NC4=O)C5=O)CC3)CC1)C2=O` (some centres unmarked) [Example 431]: in the test on IL6 [1], the Dmax fell in the range of 70 to 80% and the IC50 was in the range of 10 to 50 nM. For the same molecule, in the test on IL6 [2], the Dmax was not below 90% and the IC50 fell in the range of 10 to 50 nM. Also, at IRAK-4, the DC50 fell in the range of 1 to 5 nM, the Dmax was not below 90% and the “PBMC DC90” value was “A (A represents a DC90 value <10.0 nM)”.

Turning to `CC(C)Oc1cc2nn(C3CCN(CC4(F)CN(c5ccc6c(c5)C(=O)N(C5CCC(=O)NC5=O)C6=O)C4)CC3)cc2cc1NC(=O)c1cnn2cccnc12` (centres unmarked) [Example 265, N-[2-[1-[[1-[2-(2,6-dioxo-3-piperidyl)-1,3-dioxo-isoindolin-5-yl]-3-fluoro-azetidin-3-yl]methyl]-4-piperidyl]-6-isopropoxy-indazol-5-yl]pyrazolo[1,5-a]pyrimidine-3-carboxamide], in the test on IL6 [1], the Dmax was not below 90% and the IC50 fell in the range of 10 to 50 nM. For the same molecule, at IRAK-4, the DC50 lay in the range of 1 to 5 nM, the Dmax is not below 90% and the “PBMC DC90” value is “A (A represents a DC90 value <10.0 nM)”.

`CC(C)Oc1cc2c(cc1NC(=O)c1cnn3cccnc13)CN([C@H]1CC[C@@H](N3CC4(CN(c5ccc6c(c5)CN(C5CCC(=O)NC5=O)C6=O)C4)C3)CC1)C2=O` (some centres unmarked) [Example 277]: at IRAK-4, the DC50 is less than 1 nM, the Dmax is not below 90% and the “PBMC DC90” value was “A (A represents a DC90 value <10.0 nM)”.

Consider `CC(C)Oc1nc2nn(C3CCN(CC4(F)CN(c5ccc6c(c5)CN(C5CCC(=O)NC5=O)C6=O)C4)CC3)cc2cc1NC(=O)c1cnn2cccnc12` (centres unmarked) [Example 416, N-[2-[1-[[1-[2-(2,6-dioxo-3-piperidyl)-1-oxo-isoindolin-5-yl]-3-fluoro-azetidin-3-yl]methyl]-4-piperidyl]-6-isopropoxy-pyrazolo[3,4-b]pyridin-5-yl]pyrazolo[1,5-a]pyrimidine-3-carboxamide], for which, at IRAK-4, the DC50 is less than 1 nM, the Dmax fell in the range of 80 to 90% and the “PBMC DC90” value is on record as “A (A represents a DC90 value <10.0 nM)”.

Take `O=C1CCC(N2C(=O)c3ccc(N4CC(F)(CN5CCC(N6Cc7cc(NC(=O)c8cnn9cccnc89)c(OC8CC8)cc7C6=O)CC5)C4)cc3C2=O)C(=O)N1` (centres unmarked) [Example 85]: at IRAK-4, the DC50 lay in the range of 1 to 5 nM; the Dmax was in the range of 80 to 90%; the “PBMC DC90” value is “C (C represents a DC90 value ≥25.0 nM and <50 nM)”.

As for `CN(C1CCC(n2cc3cc(NC(=O)c4cnn5cccnc45)c(OCC4CC4)cc3n2)CC1)C1CCN(c2ccc3c(c2)C(=O)N(C2CCC(=O)NC2=O)C3=O)CC1` (centres unmarked) [Example 323], at IRAK-4, the DC50 is less than 1 nM, the Dmax was not below 90% and the “PBMC DC90” value was “A (A represents a DC90 value <10.0 nM)”.

Consider `O=C1CCC(N2C(=O)c3ccc(N4CC(F)(CN5CCC(n6cc7cc(NC(=O)c8cnn9cccnc89)c(C8CC8)cc7n6)CC5)C4)cc3C2=O)C(=O)N1` (centres unmarked) [Example 199], for which, on IRAK-4, the DC50 was 1 to 5 nM; the Dmax was not below 90%; the “PBMC DC90” value is “B (B represents a DC90 value ≥10.0 nM and <25.0 nM)”.
